Experimental data taken from patent US11607422B2, “Uttroside B and derivatives thereof as therapeutics for hepatocellular carcinoma” (Rajiv Gandhi Centre for Biotechnology, an Autonomous …, priority 2016, dated 2023).

Experiments:
HepG2 cells = experiment: MTT cell viability assay in HepG2 cells; type: cell-based, human; details: 72 h, MTT assay; read-out: IC50, cytotoxicity towards HepG2 cells
Protocol: Stocks of crude extracts and isolated compound of S. nigrum was prepared in DMSO for the in vitro studies and stored at −20° C. The DMSO concentration in all studies, including controls, was ≤0.2%. Cell viability assay was performed after 72 h of drug treatment while whole cell lysate preparation and cell cycle analysis were done after 24 h and 48 h of drug treatment. For studying NF-κB and AP-1, Uttroside B was incubated for 2 h before extraction.
MTT [3-(4,5-dimethylthiazole-2-yl)-2,5-diphenyltetrazolium bromide] assay is a standard colorimetric assay, suitable for analyzing proliferation, viability, and cytotoxicity. Briefly, the HepG2 cells were seeded in 96-well plates (2000 cells/well). […] Fresh media containing 25 μL of MTT solution (5 mg/mL in PBS) and 75 μL of complete medium was added to the wells and incubated for 2 h. At the end of incubation, lysis buffer (20% sodium dodecyl sulphate in 50% dimethyl formamide)was added to the wells (0.1 mL/well) and incubated for another 1 h at 37° C. At the end of incubation, the optical density was measured at 570 nm using ELISA plate reader (Bio-Rad). The relative cell viability in percentage was calculated as (A570 of treated samples/A570 of untreated samples)×100. The IC50 values were extrapolated from polynomial regression analysis of study data.^17

[1] = system: mTOR pathway in HepG2 cells; experiment: Western blot of mTOR and downstream target phosphorylation; type: cell-based, human
Protocol: FIGS. 4A-4E are images showing Uttroside B inhibits MAPK and mTOR signaling, some of the crucial survival signals in liver cancer. […] HepG2 cells were treated with Uttroside B for different time intervals (0-240 min) and the whole cell lysate was resolved on a 10% gel and immunoblotted against phospho-ERK1/2 and phospho-Akt antibodies. Taxol was used as a positive control. […] HepG2 cells were treated with Uttroside B at different time intervals and the whole cell lysate was resolved on an 8% gel and immunoblotted against phospho-mTOR (2448) and phospho-mTOR (2481) antibodies.
Western blot analysis. Approximately 0.5×10^6 cells were grown on 60 mm culture plates and exposed to drugs as indicated for the desired time. The cells were then scraped out, washed in ice cold 1× PBS and pelleted down at 13000 rpm for 2 min. […]
Uttroside B inhibits mTOR signaling, a crucial survival signal in liver cancer. […] Concomitantly, the phosphorylation of p70S6 kinase and 4E-BP-1, two m-TOR substrates whose phosphorylation can be considered as the read out of m-TOR activity, was found reduced in response to Uttroside B-treatment. […]

For `C[C@H](CC[C@@]1(O)O[C@H]2C[C@H]3[C@@H]4CC[C@H]5C[C@@H](O[C@@H]6O[C@H](CO)[C@H](O[C@@H]7O[C@H](CO)[C@@H](O)[C@H](O[C@@H]8OC[C@@H](O)[C@H](O)[C@H]8O)[C@H]7O[C@@H]7O[C@H](CO)[C@@H](O)[C@H](O)[C@H]7O)[C@H](O)[C@H]6O)CC[C@]5(C)[C@H]4CC[C@]3(C)[C@H]2[C@@H]1C)CO[C@@H]1O[C@H](CO)[C@@H](O)[C@H](O)[C@H]1O` [Uttroside B], the IC50 (HepG2 cells) was 500 nM, the “phosphorylation of p70S6 kinase and 4E-BP-1” value [1] was “found reduced” and the “phosphorylation of mTOR” value ([1]; different time intervals) was “time dependent decrease in the phosphorylation of m-TOR at 2448 and 2481 phosphorylation sites”.
